Source: PMC7759686, “Pharmacokinetics and Immunological Effects of Romidepsin in Rhesus Macaques” (Frontiers in Immunology, 2020)
Where “and” joins values, the source holds several entries; their conditions need not be identical. Identical values can stand only once.

Columns and labels:
[1] = tested on: CD8+ T cells; assay: T lymphocyte functional assay (PMA/ionomycin stimulation, flow cytometry); format: in vivo, rhesus macaques (Macaca mulatta)
Description: To simplify the complication of RMD treatment and SIV infection, it was vital to assess the impact of RMD administration on the T-cell function, particularly on the cellular immune responses on uninfected RMs. Due to the incapability to assess the SIV-specific immune responses, the overall cytotoxic capacity of lymphocytes in the blood was assessed as follows. Frozen PBMCs were thawed, counted, and were either unstimulated or stimulated with PMA and ionomycin (Sigma, St. Louis, MO). PBMCs were stained with the following antibodies: CD3-V500 (SP34-2), CD4-APC (L200), CD8-PE-CF594 (RPA-T8), CD107a-APC-Cy7 (H4A3), Granzyme A-PerCP/Cy5.5 (CB9) (BioLegend), Granzyme B-Alexa Flour 700 (GB11), Granzyme K-FITC (GM6C3) (Santa Cruz Biotechnology, Dallas, TX), IFN-γ-FITC (4S.B3), and Perforin-PE (B-D48) (BioLegend); antibodies were from BD Biosciences unless otherwise noted. Stained PBMCs were then acquired on an LSR-II flow cytometer. Data were analyzed using FlowJo software (Treestar).
Previous studies reported conflicting data as to whether the functionality of CTLs is diminished by RMD administration ([41], [64]). Therefore, we performed functional assays on lymphocytes collected from superficial and mesenteric LNs and intestinal resections, focusing on the overall expression of the surrogate killing marker CD107a, along with granzymes A, B, and K, IFN-γ, and perforin with PMA and ionomycin stimulation ( Figure 11 ).

[2] = RMD pharmacokinetics in plasma and tissues (LC-MS/MS); details: 7 mg/m^2 4-h IV infusion; for RMD plasma concentration at 2 h postinfusion: second round
[3] = Cortisol ELISA in plasma; format: in vivo, rhesus macaques (Macaca mulatta); details: RMD-infused RMs vs saline controls (peak 6 h, decreasing from day 1); n = 3 per group
Excerpt: Cortisol ELISA. To assess the levels of stress associated with the different animal procedures used, frozen plasma was thawed, and dilutions of either 1:16 to 1:50 were used to measure the circulating cortisol levels with a cortisol ELISA kit (ENZO, Farmingdale, NY, USA), as per manufacturer instructions. The results were read at 405 nm on a Ultrospec 2100 Pro (Amersham Biosciences, Little Chalfont, UK) and results interpolated by Prism 8.4.3 (GraphPad Software, Inc., San Diego, CA) using 4 parameter logistic curve fitting.

[4] = tested on: circulating lymphocytes, T cells, B cells and neutrophils; assay: Immune cell counts in blood (CBC, TruCount flow cytometry); format: in vivo, rhesus macaques (Macaca mulatta); details: for CD8+ T cells in blood: baseline 1,047; for CD4+ T cells in blood: baseline 2,518; for total circulating lymphocytes: baseline 5,050, 3 RMs, 7 mg/m^2
Description: Figure 1 illustrates the sampling schedule. […] Intestinal biopsies were taken at 13 days prior to infusion; intestinal resections were taken at 30 days before infusion and 1 day postinfusion; LNs were collected at 30 and 13 days prior to infusion, 6 h postinfusion, and 1 and 7 days postinfusion. The samples collected during the first round of RMD treatment were used for immune population dynamics and functionality.
Complete blood counts (CBCs) and serum chemistries were monitored in the collected samples from both the RMD-treated RMs and control RMs by either the Marshfield Laboratories (Cleveland, OH), IDEXX Reference Laboratories (IDEXX Laboratories, Inc, Westbrook, ME) or in house, using a ProCyte Hematology Analyzer (IDEXX Laboratories, Inc).
Whole blood was stained to monitor the impact of RMD on the immune cell populations. TruCount was used to determine absolute counts of CD3^+, CD4^+, CD8^+ T cells and CD20^+ B cells as described ([51]–[53]). Fifty microliters of whole blood were stained with antibodies against CD3-V450, CD4-APC, CD20-APC-H7, and CD45-PerCP in TruCount tubes (BD Biosciences, Franklin Lakes, NJ, USA) with a set number of fluorescent beads as internal standards. CD8^+ T cell counts were assessed through the ratio of CD8^+ to CD3^+ T cells. Whole blood was also stained with combinations of the following fluorescently labeled antibodies: CD3-V450 (SP34-2), CD4-APC (L200), CD8-PE-CF594 (RPA-T8), CD14-PE-Cy7 (M5E2), CD38-FITC (AT-1) (Stemcell, Vancouver, BC, CA), CD20-APC-H7 (2H7), CD69-APC-Cy7 (FN50), CD95-FITC (DX2), CCR5-PE (3A9), Annexin V-FITC, HLA-DR-PE-Cy7 (L243), NKG2A-PE (Z199) (Beckman Coulter, Pasadena, CA), Strepavidin-Alexa Fluor 750 (Life Technologies, Carlsbad, CA), Biotin-CCR7 (eBioscience, San Diego, CA), LIVE/DEAD Fixable Blue Dead Cell Stain Kit (Thermo Fisher Scientific); all antibodies were from BD Biosciences unless otherwise noted. For Ki-67-PE (B56) intracellular staining, cells were fixed and permeabilized prior to Ki-67 staining. Data were acquired with a LSR-II flow cytometer (BD Biosciences) or Fortessa flow cytometer (BD Biosciences) and analyzed with FlowJo software 10.7.0 (Treestar, Ashland, OR), as described ([51], [54]).

[5] = intestine, 2 days postinfusion, pretreatment 2%
[6] = mesenteric LN, 1 day postinfusion, pretreatment 2%
[7] = superficial LN, 2 days postinfusion, pretreatment 1%
[8] = superficial LN, 2 days postinfusion, pretreatment 4%
[9] = kel from mean concentration-time profile of 3 RMs

Compound: C/C=C1\NC(=O)[C@H]2CSSCC/C=C/[C@H](CC(=O)N[C@H](C(C)C)C(=O)N2)OC(=O)[C@H](C(C)C)NC1=O [RMD, romidepsin]
- Granzyme K expression in CD8+ T cells ([1]; intestine, 2 days postinfusion, pretreatment 1%): < 1%
- CD107a expression in CD8+ T cells [1, 5]: 1%
- Granzyme A expression in CD8+ T cells [1, 5]: < 1%
- Perforin expression in CD8+ T cells ([1]; intestines, 2 days postinfusion, pretreatment 1%): < 1%
- IFN-γ expression in CD8+ T cells ([1]; intestines, 2 days postinfusion, pretreatment 2%): 1%
- Granzyme B expression in CD8+ T cells ([1]; intestines, 2 days postinfusion, pretreatment 11%): 3%
- CD107a expression in CD8+ T cells ([1]; mesenteric LN, 1 day postinfusion, pretreatment 1%): < 1%
- Granzyme K expression in CD8+ T cells [1, 6]: < 1%
- Perforin expression in CD8+ T cells [1, 6]: < 1%
- IFN-γ expression in CD8+ T cells ([1]; mesenteric LN, 1 day postinfusion, pretreatment 5%): 3%
- Granzyme B expression in CD8+ T cells ([1]; mesenteric LN, 2 days postinfusion, pretreatment 5%): 2%
- Granzyme A expression in CD8+ T cells ([1]; mesenteric LNs, 1 day postinfusion, pretreatment 1%): < 1%
- CD107a expression in CD8+ T cells [1, 7]: < 1%
- Granzyme K expression in CD8+ T cells [1, 7]: < 1%
- Perforin expression in CD8+ T cells [1, 7]: < 1%
- Granzyme B expression in CD8+ T cells [1, 8]: 1%
- IFN-γ expression in CD8+ T cells [1, 8]: 1%
- Granzyme A expression in CD8+ T cells ([1]; superficial LNs, 2 days postinfusion, pretreatment 1%): < 1%
- GI tract terminal half-life relative to plasma [2]: 1.8 fold
- LN terminal half-life relative to plasma [2]: seven-fold longer
- plasma concentration at 8 h postinfusion [2]: 5.16 nM
- time with quantifiable concentrations in GI tract ([2]; last sampling 10 days): 10 days postinfusion
- time with quantifiable concentrations in LNs ([2]; last sampling 10 days): 10 days postinfusion
- mean terminal half-life in plasma ([2]; 3 SIV-naïve RMs, kel from semi-log regression of individual plasma data, observations after 96 h omitted): 15.3 h
- RMD concentration in intestine at 4 h postinfusion ([2]; animal RM32): 354 ng/g
- RMD plasma concentration at 2 h postinfusion ([2]; animal RM32, LC-MS/MS): 47 ng/mL
- RMD concentration in intestine at 4 h postinfusion ([2]; animal RM33): 3,932 ng/g
- RMD plasma concentration at 2 h postinfusion ([2]; animal RM33, LC-MS/MS): 7.7 ng/mL and 8 ng/mL
- RMD plasma concentration at 2 h postinfusion ([2]; animal RM71, LC-MS/MS): 4.7 ng/mL and 5 ng/mL
- plasma concentration at 2 h postinfusion ([2]; group value of 3 RMs): 19.9 ng/mL
- RMD concentration in LNs at 4 h postinfusion ([2]; individual values of 3 RMs, superficial LNs, tissue density 1.0 g/ml assumed, LC-MS/MS): 70 ng/mL and 75 ng/mL and 101 ng/mL
- mean terminal half-life in gastrointestinal tract [2, 9]: 28 h
- mean terminal half-life in lymph nodes [2, 9]: 110 h
- RMD concentration in GI tract at 4 h postinfusion, median ([2]; median of 3 RMs, intestinal biopsies, LC-MS/MS): 3,665 ng/g
- plasma cortisol levels after infusion [3]: remained elevated through 2 dpi
- CD8+ T cells in blood ([4]; 12 h postinfusion, p < 0.05): 204 cells/μl
- CD4+ T cells in blood ([4]; 12 h postinfusion, p < 0.05): 402 cells/μl
- neutrophils in blood ([4]; 12 h postinfusion, baseline 3,273, normal 6.2 ± 2.4 × 10^3, not significant): 14,287 cells/μl
- total circulating lymphocytes ([4]; 12 h postinfusion, p < 0.05): 1,463 cells/μl
- CD8+ T cells in blood ([4]; 1 day postinfusion, p < 0.05): 178 cells/μl
- CD4+ T cells in blood ([4]; 1 day postinfusion, p < 0.05): 496 cells/µl
- neutrophils in blood ([4]; 1 day postinfusion, baseline 3,273): 9,123 cell/µl
- CD8+ T cells in blood ([4]; 2 days postinfusion, p < 0.05): 204 cells/μl
- CD4+ T cells in blood ([4]; 2 days postinfusion, p < 0.05): 366 cells/μl
- total circulating lymphocytes ([4]; 2 days postinfusion, p < 0.05): 1,753 cells/μl
- CD4+ T cells in blood ([4]; 5 days postinfusion (recovery)): 1,305 cells/μl
- CD8+ T cells in blood ([4]; 5 days postinfusion): 634 cells/μl
- neutrophils in blood ([4]; 5 days postinfusion, baseline 3,273): 2,427 cells/μl
- CD8+ T cells in blood ([4]; 7 days postinfusion (near full recovery)): 741 cells/μl
- B cells (CD3−CD20+) in blood ([4]; RMD treated RMs, no change in saline control group): declined
